In ChEMBL document CHEMBL4800722, “Data for DCP probe BI 605906” (2021):

How the values were obtained:
[1] = molecular target: Alpha-2A adrenergic receptor (Homo sapiens) (UniProt P08913); conditions: Compound concentration 10.0 uM
[2] = molecular target: Kappa-type opioid receptor (Homo sapiens) (UniProt P41145); conditions: Compound concentration 10.0 uM
[3] = molecular target: 5-hydroxytryptamine receptor 7 (Homo sapiens) (UniProt P34969); conditions: Compound concentration 10.0 uM
[4] = molecular target: Muscarinic acetylcholine receptor M1 (Homo sapiens) (UniProt P11229); conditions: Compound concentration 10.0 uM
[5] = molecular target: D(1A) dopamine receptor (Homo sapiens) (UniProt P21728); conditions: Compound concentration 10.0 uM
[6] = molecular target: T1, D(4) dopamine receptor (Homo sapiens) (UniProt P21917); conditions: Compound concentration 10.0 uM
T1 sequence (whole entry): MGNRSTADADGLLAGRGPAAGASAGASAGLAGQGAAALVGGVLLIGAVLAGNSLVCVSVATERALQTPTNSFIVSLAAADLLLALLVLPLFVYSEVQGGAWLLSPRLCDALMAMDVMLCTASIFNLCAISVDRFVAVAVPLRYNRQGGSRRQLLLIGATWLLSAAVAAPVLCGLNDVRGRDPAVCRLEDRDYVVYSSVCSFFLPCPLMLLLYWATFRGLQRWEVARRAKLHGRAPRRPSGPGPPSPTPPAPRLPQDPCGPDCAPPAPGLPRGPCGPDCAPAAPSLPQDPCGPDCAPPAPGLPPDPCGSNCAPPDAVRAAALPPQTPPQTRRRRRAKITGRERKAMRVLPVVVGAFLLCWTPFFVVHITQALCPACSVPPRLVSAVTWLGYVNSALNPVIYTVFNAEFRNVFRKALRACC

[7] = molecular target: T2, Sodium-dependent dopamine transporter (Homo sapiens, UniProt Q01959); conditions: Compound concentration 10.0 uM
T2 sequence (Q01959 whole entry): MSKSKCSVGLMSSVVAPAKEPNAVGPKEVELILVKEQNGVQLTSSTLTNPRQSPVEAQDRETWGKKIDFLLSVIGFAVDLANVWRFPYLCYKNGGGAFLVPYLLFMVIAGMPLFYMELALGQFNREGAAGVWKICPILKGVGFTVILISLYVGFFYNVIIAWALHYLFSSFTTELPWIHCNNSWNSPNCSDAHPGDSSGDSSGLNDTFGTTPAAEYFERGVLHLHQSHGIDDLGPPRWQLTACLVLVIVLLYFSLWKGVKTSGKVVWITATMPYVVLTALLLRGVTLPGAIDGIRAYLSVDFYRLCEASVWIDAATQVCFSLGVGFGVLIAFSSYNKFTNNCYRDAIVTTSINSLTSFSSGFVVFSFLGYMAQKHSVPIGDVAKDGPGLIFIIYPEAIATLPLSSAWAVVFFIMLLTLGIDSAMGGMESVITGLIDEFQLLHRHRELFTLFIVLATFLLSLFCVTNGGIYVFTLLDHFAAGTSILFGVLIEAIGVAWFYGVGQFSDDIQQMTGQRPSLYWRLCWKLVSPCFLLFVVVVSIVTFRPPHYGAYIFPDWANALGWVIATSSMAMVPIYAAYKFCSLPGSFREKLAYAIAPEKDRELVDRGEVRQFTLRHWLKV

[8] = molecular target: Beta-2 adrenergic receptor (Homo sapiens) (UniProt P07550); conditions: Compound concentration 10.0 uM
[9] = molecular target: 5-hydroxytryptamine receptor 1A (Homo sapiens) (UniProt P08908); conditions: Compound concentration 10.0 uM
[10] = molecular target: Alpha-1B adrenergic receptor (Homo sapiens) (UniProt P35368); conditions: Compound concentration 10.0 uM
[11] = molecular target: Delta-type opioid receptor (Homo sapiens) (UniProt P41143); conditions: Compound concentration 10.0 uM
Chain of Delta-type opioid receptor (Homo sapiens) (P41143 whole entry): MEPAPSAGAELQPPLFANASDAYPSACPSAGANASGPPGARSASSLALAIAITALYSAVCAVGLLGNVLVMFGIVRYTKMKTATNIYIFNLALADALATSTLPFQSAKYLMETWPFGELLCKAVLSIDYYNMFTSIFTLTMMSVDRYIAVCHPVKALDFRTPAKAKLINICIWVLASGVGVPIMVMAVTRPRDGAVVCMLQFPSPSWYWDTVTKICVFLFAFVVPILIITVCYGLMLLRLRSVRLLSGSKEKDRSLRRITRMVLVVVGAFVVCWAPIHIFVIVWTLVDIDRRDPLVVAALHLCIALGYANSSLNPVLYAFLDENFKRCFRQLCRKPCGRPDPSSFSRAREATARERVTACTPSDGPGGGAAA

[12] = molecular target: T3, GABA-A receptor; anion channel (Rattus norvegicus) (UniProt O09028+P15431+P18506+P18508+P19969+P20236+P23574+P23576+P28471+P28473+P30191+P62813+P63079+P63138+Q91ZM7+Q9ES14); conditions: Compound concentration 10.0 uM
[13] = molecular target: Muscarinic acetylcholine receptor M3 (Homo sapiens) (UniProt P20309); conditions: Compound concentration 10.0 uM
[14] = molecular target: Sodium-dependent serotonin transporter (Homo sapiens) (UniProt P31645); conditions: Compound concentration 10.0 uM
[15] = molecular target: Sodium-dependent noradrenaline transporter (Homo sapiens) (UniProt P23975); conditions: Compound concentration 10.0 uM
[16] = molecular target: Alpha-1D adrenergic receptor (Homo sapiens) (UniProt P25100); conditions: Compound concentration 10.0 uM
[17] = molecular target: Histamine H1 receptor (Homo sapiens) (UniProt P35367); conditions: Compound concentration 10.0 uM
[18] = molecular target: 5-hydroxytryptamine receptor 2C (Homo sapiens) (UniProt P28335); conditions: Compound concentration 10.0 uM
[19] = molecular target: 5-hydroxytryptamine receptor 6 (Homo sapiens) (UniProt P50406); conditions: Compound concentration 10.0 uM
[20] = molecular target: Muscarinic acetylcholine receptor M2 (Homo sapiens) (UniProt P08172); conditions: Compound concentration 10.0 uM
Chain of Muscarinic acetylcholine receptor M2 (Homo sapiens) (P08172 whole entry): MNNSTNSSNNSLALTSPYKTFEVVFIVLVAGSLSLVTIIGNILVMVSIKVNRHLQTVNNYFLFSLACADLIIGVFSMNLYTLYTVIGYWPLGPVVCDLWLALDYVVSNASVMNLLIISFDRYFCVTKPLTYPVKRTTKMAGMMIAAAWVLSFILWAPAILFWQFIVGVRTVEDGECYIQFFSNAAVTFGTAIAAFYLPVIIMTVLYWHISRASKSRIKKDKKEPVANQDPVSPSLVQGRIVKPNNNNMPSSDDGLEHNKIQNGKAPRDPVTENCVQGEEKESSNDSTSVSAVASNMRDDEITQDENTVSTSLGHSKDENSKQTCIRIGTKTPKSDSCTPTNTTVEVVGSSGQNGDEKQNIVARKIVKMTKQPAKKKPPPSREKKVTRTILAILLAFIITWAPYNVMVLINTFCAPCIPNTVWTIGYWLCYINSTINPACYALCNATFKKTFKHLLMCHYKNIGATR

[21] = molecular target: Sigma non-opioid intracellular receptor 1 (Homo sapiens) (UniProt Q99720); conditions: Compound concentration 10.0 uM
[22] = molecular target: Muscarinic acetylcholine receptor M4 (Homo sapiens) (UniProt P08173); conditions: Compound concentration 10.0 uM
[23] = molecular target: 5-hydroxytryptamine receptor 1D (Homo sapiens) (UniProt P28221); conditions: Compound concentration 10.0 uM
[24] = molecular target: Muscarinic acetylcholine receptor M5 (Homo sapiens) (UniProt P08912); conditions: Compound concentration 10.0 uM
Chain of Muscarinic acetylcholine receptor M5 (Homo sapiens) (P08912 whole entry): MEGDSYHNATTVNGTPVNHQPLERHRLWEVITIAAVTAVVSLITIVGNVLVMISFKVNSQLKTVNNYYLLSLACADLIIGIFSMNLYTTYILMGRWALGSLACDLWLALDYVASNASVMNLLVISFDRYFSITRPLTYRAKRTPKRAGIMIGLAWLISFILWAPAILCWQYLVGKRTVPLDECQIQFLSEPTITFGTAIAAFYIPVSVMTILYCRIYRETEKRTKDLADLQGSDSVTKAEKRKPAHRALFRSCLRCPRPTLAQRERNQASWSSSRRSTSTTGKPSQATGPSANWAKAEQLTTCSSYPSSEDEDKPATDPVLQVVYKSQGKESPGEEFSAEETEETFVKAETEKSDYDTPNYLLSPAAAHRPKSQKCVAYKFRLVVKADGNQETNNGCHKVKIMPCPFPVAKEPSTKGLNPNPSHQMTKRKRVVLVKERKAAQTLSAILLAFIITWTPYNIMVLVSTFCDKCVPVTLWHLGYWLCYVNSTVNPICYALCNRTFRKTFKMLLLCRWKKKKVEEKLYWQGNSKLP

[25] = molecular target: 5-hydroxytryptamine receptor 5A (Homo sapiens) (UniProt P47898); conditions: Compound concentration 10.0 uM
[26] = molecular target: Histamine H3 receptor (Homo sapiens) (UniProt Q9Y5N1); conditions: Compound concentration 10.0 uM
[27] = molecular target: 5-hydroxytryptamine receptor 1E (Homo sapiens) (UniProt P28566); conditions: Compound concentration 10.0 uM
[28] = molecular target: Mu-type opioid receptor (Homo sapiens) (UniProt P35372); conditions: Compound concentration 10.0 uM
[29] = molecular target: T2, Sodium-dependent dopamine transporter; assay: GPCRScan assay: inhibition of DAT; parameters: radioligand conc. used [nm] 3.6 – 16.0, parental cells stable HEK
[30] = molecular target: 5-hydroxytryptamine receptor 2A (Homo sapiens) (UniProt P28223); conditions: Compound concentration 10.0 uM
[31] = molecular target: 5-hydroxytryptamine receptor 3A (Homo sapiens) (UniProt P46098); conditions: Compound concentration 10.0 uM
Chain of 5-hydroxytryptamine receptor 3A (Homo sapiens) (P46098 whole entry): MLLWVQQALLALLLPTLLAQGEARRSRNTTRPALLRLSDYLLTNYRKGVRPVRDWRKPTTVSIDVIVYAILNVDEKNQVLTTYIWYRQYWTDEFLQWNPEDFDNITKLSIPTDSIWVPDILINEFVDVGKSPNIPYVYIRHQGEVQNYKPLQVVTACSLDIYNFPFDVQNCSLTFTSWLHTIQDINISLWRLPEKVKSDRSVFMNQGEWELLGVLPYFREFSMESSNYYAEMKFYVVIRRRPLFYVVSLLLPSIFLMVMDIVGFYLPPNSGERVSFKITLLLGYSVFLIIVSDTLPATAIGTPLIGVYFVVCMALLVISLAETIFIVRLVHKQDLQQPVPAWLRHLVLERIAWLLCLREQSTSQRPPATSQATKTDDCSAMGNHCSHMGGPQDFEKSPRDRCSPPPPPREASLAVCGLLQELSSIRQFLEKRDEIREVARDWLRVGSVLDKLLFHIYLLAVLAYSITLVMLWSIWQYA

[32] = molecular target: T3, GABA-A receptor; anion channel (Rattus norvegicus); conditions: Compound concentration 10.0 uM; remark: listed apart in the source
[33] = molecular target: Alpha-1A adrenergic receptor (Homo sapiens) (UniProt P35348); conditions: Compound concentration 10.0 uM
Chain of Alpha-1A adrenergic receptor (Homo sapiens) (P35348 whole entry): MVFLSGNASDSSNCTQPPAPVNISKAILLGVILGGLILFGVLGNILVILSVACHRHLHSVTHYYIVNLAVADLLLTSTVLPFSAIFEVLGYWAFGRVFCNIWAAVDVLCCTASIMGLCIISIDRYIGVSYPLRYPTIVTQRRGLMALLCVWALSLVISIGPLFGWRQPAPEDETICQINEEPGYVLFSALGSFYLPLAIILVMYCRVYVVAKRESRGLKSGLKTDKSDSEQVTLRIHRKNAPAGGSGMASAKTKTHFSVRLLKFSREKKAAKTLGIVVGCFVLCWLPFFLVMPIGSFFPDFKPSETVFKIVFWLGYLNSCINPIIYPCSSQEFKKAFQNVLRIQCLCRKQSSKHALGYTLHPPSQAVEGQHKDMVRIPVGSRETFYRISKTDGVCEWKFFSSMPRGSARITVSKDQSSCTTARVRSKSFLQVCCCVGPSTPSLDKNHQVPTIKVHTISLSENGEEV

[34] = molecular target: Sigma intracellular receptor 2 (Homo sapiens) (UniProt Q5BJF2); conditions: Compound concentration 10.0 uM
[35] = molecular target: D(2) dopamine receptor (Homo sapiens) (UniProt P14416); conditions: Compound concentration 10.0 uM
[36] = molecular target: 5-hydroxytryptamine receptor 2B (Homo sapiens) (UniProt P41595); conditions: Compound concentration 10.0 uM
[37] = molecular target: Alpha-2C adrenergic receptor (Homo sapiens) (UniProt P18825); conditions: Compound concentration 10.0 uM
[38] = molecular target: Alpha-2B adrenergic receptor (Homo sapiens) (UniProt P18089); conditions: Compound concentration 10.0 uM
Rattus norvegicus = organism: Rattus norvegicus; conditions: Compound concentration 10.0 uM
[39] = molecular target: Histamine H2 receptor (Homo sapiens) (UniProt P25021); conditions: Compound concentration 10.0 uM
Chain of Histamine H2 receptor (Homo sapiens) (P25021 whole entry): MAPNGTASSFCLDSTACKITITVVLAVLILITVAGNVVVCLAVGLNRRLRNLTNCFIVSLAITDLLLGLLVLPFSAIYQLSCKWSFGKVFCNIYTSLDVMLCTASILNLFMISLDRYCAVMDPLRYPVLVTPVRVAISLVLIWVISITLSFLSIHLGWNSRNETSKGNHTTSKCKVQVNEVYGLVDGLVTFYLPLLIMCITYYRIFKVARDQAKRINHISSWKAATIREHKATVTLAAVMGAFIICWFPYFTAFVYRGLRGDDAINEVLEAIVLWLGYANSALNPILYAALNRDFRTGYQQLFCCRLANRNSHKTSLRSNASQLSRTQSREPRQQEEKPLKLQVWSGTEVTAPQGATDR

[40] = molecular target: Inhibitor of nuclear factor kappa-B kinase subunit beta (Homo sapiens, UniProt O14920); assay: Biochemical assay
Chain of Inhibitor of nuclear factor kappa-B kinase subunit beta (O14920 whole entry): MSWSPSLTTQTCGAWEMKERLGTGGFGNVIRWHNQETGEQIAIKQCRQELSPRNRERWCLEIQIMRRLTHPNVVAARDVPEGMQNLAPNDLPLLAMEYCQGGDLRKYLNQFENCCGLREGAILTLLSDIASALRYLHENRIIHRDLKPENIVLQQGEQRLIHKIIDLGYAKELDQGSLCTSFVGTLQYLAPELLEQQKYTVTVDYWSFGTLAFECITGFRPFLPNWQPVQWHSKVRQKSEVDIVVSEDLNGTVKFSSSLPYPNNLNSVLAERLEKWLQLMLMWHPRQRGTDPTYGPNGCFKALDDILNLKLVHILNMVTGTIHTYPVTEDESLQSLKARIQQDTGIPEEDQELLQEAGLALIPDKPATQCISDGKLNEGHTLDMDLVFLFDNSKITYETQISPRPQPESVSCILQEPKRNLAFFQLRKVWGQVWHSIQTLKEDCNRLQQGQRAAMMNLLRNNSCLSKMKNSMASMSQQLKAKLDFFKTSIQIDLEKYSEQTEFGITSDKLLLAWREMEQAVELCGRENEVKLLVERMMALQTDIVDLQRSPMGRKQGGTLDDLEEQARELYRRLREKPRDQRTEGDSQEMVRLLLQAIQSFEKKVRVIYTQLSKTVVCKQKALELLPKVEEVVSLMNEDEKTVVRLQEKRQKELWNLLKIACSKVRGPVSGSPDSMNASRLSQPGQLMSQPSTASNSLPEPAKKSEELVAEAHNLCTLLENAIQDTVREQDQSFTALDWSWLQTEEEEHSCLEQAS

Chain of 5-hydroxytryptamine receptor 7 (Homo sapiens) (P34969 whole entry): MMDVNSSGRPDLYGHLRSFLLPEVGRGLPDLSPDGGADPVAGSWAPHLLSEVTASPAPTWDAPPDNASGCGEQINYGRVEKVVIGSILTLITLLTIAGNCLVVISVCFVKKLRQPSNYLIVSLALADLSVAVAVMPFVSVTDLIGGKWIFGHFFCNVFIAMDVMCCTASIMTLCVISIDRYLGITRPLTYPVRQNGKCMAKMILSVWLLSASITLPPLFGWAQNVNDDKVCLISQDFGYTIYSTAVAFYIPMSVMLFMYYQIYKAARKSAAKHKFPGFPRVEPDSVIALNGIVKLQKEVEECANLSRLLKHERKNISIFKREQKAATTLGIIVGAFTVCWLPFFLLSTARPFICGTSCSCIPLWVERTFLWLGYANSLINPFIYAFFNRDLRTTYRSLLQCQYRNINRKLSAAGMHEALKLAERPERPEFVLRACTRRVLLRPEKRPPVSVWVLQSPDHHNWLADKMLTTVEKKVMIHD
Chain of Alpha-2A adrenergic receptor (Homo sapiens) (P08913 whole entry): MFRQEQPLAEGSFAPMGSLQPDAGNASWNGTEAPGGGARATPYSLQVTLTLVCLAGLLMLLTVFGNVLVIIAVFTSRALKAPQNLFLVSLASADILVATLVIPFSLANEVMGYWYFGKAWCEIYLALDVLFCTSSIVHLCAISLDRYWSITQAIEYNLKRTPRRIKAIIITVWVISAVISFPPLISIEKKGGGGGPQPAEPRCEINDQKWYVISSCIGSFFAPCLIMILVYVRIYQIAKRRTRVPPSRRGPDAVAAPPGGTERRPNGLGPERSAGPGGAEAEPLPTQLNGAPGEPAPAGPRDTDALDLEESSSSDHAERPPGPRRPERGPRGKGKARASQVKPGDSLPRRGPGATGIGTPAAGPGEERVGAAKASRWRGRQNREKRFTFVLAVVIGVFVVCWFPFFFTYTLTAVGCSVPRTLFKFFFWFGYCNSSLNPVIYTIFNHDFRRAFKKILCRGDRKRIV

inhibition [1]: 13% | inhibition [2]: 9.53% | inhibition [3]: 2.32% | inhibition [4]: 0.25% | inhibition [5]: 1.22% | inhibition [6]: 4.15% | inhibition [7]: 80.5% | inhibition [8]: 6.22% | inhibition [9]: 40.6% | inhibition [10]: -7.86% | inhibition [11]: 8.58% | inhibition [12]: 3.61% | inhibition [13]: 7.05% | inhibition [14]: 18.1% | inhibition [15]: 1.7% | inhibition [16]: 7.27% | inhibition [17]: 24.5% | inhibition [18]: 11.6% | inhibition [19]: 24.2% | inhibition [20]: 13.4% | inhibition [21]: 31.5% | inhibition [22]: 3.63% | inhibition [23]: 6.7% | inhibition [24]: -6.93% | inhibition [25]: 5.35% | inhibition [26]: -1.1% | inhibition [27]: 2.45% | inhibition [28]: 22.4% | Ki ([29]; read-out: Ki): 4.27 µM | Ki ([29]; read-out: pKi (converted)): 4.27 µM | inhibition [30]: -1.79% | inhibition [31]: 10.3% | inhibition [32]: 13.5% | inhibition [33]: 22.8% | inhibition [34]: 70.6% | inhibition [35]: 1.12% | inhibition [36]: 47.5% | inhibition [37]: 2.96% | inhibition [38]: 3.36% | inhibition (Rattus norvegicus): 27.9% | inhibition [39]: -1.35% | IC50 [40]: > 10 µM (not active)
Compound: CN(C)C(=O)c1sc2nc(N3CCC(S(C)(=O)=O)CC3)cc(C(F)(F)F)c2c1N [BI-5026]
